We go through 19 compounds from US7632845B2, “Phenyl quinolines and their use as estrogenic agents” (Wyeth, priority 2003, dated 2009).

As usually defined, the IC50 is the midpoint of a concentration-inhibition curve. Higher therefore signals a need for much substance.

Structures are written as SMILES.

Experiment [1] concerns the target T1, ERβ (Homo sapiens, UniProt Q92731).
T1 construct: made in house; host or cells: E. coli
Kind of experiment: Competition with [3H]-17β-estradiol for ERβ ligand binding domain. The settings on record: for IC50: crude E. coli lysate expressing human ERβ LBD (D, E, & F), 2 nM [3H]-17β-estradiol, 5-15 hours at room temperature; for α/β: receptor selectivity, ratio ERα IC50 / ERβ IC50. The method, then: (§1) Representative examples of the invention were evaluated for their ability to compete with 17β-estradiol for both ERα and ERβ. This test procedure provides the methodology for one to determine whether a particular compound binds to the estrogen receptor (and is therefore “estrogenic”) and whether there is selectivity for ERα or ERβ. […] 17β-estradiol is included as a standard reference for compalison. The procedure used is briefly described below. A crude lysate of E. coli expressing the estrogen receptor ligand binding domains (D, E, & F) of human ERα or ERβ was prepared. Both receptors and compounds were diluted in 1× Dulbecco's PBS (DPBS) supplemented with 1 mM EDTA. Using a high binding masked microtiter plate, 100 uL of receptor (1 uG/well) was combined with 2 nM [^3H]-17β-estradiol and various concentrations of compound. After between 5 and 15 hours at room temperature, the plates were washed with DPBS/1 mM EDTA and bound radioactivity determined by liquid scintillation counting.

The target of experiment [2] is T2, ERα (Homo sapiens, UniProt P03372).
T2 construct: made in house; host or cells: E. coli
T2 sequence (P03372 311-547 limits assumed): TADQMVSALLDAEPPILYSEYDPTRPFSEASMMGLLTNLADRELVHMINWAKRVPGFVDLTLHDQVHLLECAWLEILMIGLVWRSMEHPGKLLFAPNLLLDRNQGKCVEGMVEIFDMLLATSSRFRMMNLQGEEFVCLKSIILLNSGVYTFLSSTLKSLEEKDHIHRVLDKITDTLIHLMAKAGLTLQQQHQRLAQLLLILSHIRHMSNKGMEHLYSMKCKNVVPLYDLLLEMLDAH
Kind of experiment: Competition with [3H]-17β-estradiol for ERα ligand binding domain. The settings on record: crude E. coli lysate expressing human ERα LBD (D, E, & F); 2 nM [3H]-17β-estradiol; 5-15 hours at room temperature. How it is done:
as §1

T1 sequence (Q92731 264-498 limits assumed): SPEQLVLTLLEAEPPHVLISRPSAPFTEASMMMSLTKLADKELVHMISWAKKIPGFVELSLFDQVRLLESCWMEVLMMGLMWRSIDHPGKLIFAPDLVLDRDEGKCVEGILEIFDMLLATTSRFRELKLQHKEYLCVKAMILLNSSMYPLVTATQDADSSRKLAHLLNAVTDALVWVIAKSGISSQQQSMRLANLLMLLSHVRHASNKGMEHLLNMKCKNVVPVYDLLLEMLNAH

Consider `Oc1ccc(-c2ccc3c(Cl)c(O)ccc3n2)cc1` [Cpd 31, 5-Chloro-2-(4-hydroxyphenyl)quinolin-6-ol], for which, in experiment [1], the IC50 was 38 nM and the α/β turned out to be 22. Also, the IC50 in experiment [2] amounted to 840 nM.

As for `Oc1ccc(-c2ccc3c(Br)c(O)ccc3n2)cc1` [Cpd 32, 5-Bromo-2-(4-hydroxyphenyl)quinolin-6-ol], in experiment [1], the IC50 stood at 90 nM and the α/β stood at 13. In experiment [2], this compound returned an IC50 of 1190 nM.

With `Oc1ccc(-c2nc3ccc(O)cc3c(Br)c2Cl)cc1` [Cpd 35a, 4-Bromo-3-chloro-2-(4-hydroxyphenyl)quinolin-6-ol], the IC50 in experiment [1] was found to be 1.25 nM; in experiment [2], 78 nM. In addition, in experiment [1], the α/β was determined as 62.

Regarding `Oc1ccc2nc(-c3ccc(O)c(F)c3)c(Cl)c(Br)c2c1` [Cpd 35b, 4-Bromo-3-chloro-2-(3-fluoro-4-hydroxyphenyl)quinolin-6-ol], the IC50 turned out to be 3.7 nM in experiment [1] and 90 nM in experiment [2]. The α/β in experiment [1] was found to be 24.

As to `Oc1ccc(-c2nc3ccc(O)cc3c(-c3ccc(F)cc3)c2Cl)cc1` [Cpd 36, 3-Chloro-4-(4-fluorophenyl)-2-(4-hydroxyphenyl)quinolin-6-ol], the values for the IC50 in experiment [1] and in experiment [2] were 244 nM and 340 nM, respectively. The α/β in experiment [1] was determined as 1.4.

For the compound `N#Cc1c(Cl)c(-c2ccc(O)c(F)c2)nc2ccc(O)cc12` [Cpd 37, 3-Chloro-4-cyano-2-(3-fluoro-4-hydroxyphenyl)quinolin-6-ol], in experiment [1], the IC50 was 26 nM and the α/β was found to be 12. Moreover, the IC50 in experiment [2] was 318 nM.

On to `Oc1cc(Br)c2nc(-c3ccc(O)c(F)c3)cc(Cl)c2c1` [Cpd 44, 8-Bromo-4-chloro-2-(3-fluoro-4-hydroxyphenyl)-quinolin-6-ol], for which the IC50 in experiment [1] was 0.54 nM; in experiment [2], 31 nM. For the same compound, the α/β in experiment [1] is 57.

`Oc1cc(Cl)c2nc(-c3ccc(O)c(F)c3)cc(Br)c2c1` [Cpd 45a, 4-Bromo-8-chloro-2-(3-fluoro-4-hydroxyphenyl)quinolin-6-ol]: the values for the IC50 in experiment [1] and in experiment [2] were 0.35 nM and 18.7 nM, respectively. Further, in experiment [1], the α/β worked out at 53.

As to `Oc1cc(Br)c2nc(-c3ccc(O)c(F)c3)cc(Br)c2c1` [Cpd 45b, 4,8-Dibromo-2-(3-fluoro-4-hydroxyphenyl)quinolin-6-ol], in experiment [1], the IC50 is 1.7 nM and the α/β was determined as 7. In addition, the IC50 in experiment [2] stood at 11.6 nM.

Turning to `N#Cc1cc(-c2ccc(O)c(F)c2)nc2c(Cl)cc(O)cc12` [Cpd 47, 8-Chloro-4-cyano-2-(3-fluoro-4-hydroxyphenyl)quinolin-6-ol], in experiment [1], the IC50 was found to be 1.7 nM and the α/β is given as 113. The IC50 in experiment [2] came to 192 nM.

For `C#Cc1cc(-c2ccc(O)c(F)c2)nc2c(Cl)cc(O)cc12` [Cpd 48, 8-Chloro-4-ethynyl-2-(3-fluoro-4-hydroxyphenyl)quinolin-6-ol], the figures for the IC50 in experiment [1] and in experiment [2] were 0.75 nM and 37 nM, respectively. In addition, the α/β in experiment [1] turned out to be 50.

As for `CCCCC#Cc1cc(-c2ccc(O)c(F)c2)nc2c(Cl)cc(O)cc12` [Cpd 49, 8-Chloro-2-(3-fluoro-4-hydroxyphenyl)-4-hex-1-ynylquinolin-6-ol], the figures for the IC50 in experiment [1] and in experiment [2] were 21 nM and 304 nM, respectively. Also, in experiment [1], the α/β came out at 14.

For `C=Cc1cc(-c2ccc(O)c(F)c2)nc2c(Cl)cc(O)cc12` [Cpd 50, 8-Chloro-2-(3-fluoro-4-hydroxyphenyl)-4-vinylquinolin-6-ol], the concentration for half-maximal inhibition (IC50) in experiment [1] turned out to be 0.95 nM; in experiment [2], 75 nM. Further, the α/β in experiment [1] is on record as 79.

Consider `N#Cc1ccc(-c2cc(-c3ccc(O)c(F)c3)nc3c(Cl)cc(O)cc23)cc1` [Cpd 51, 8-Chloro-4-(4-cyanophenyl)-2-(3-fluoro-4-hydroxyphenyl)quinolin-6-ol], for which the figures for the concentration for half-maximal inhibition (IC50) in experiment [1] and in experiment [2] were 37 nM and 2070 nM, respectively. Further, the α/β in experiment [1] is 56.

Regarding `COc1ccc(-c2cc(-c3ccc(O)c(F)c3)nc3c(Cl)cc(O)cc23)cc1` [Cpd 52, 8-Chloro-2-(3-fluoro-4-hydroxyphenyl)-4-(4-methoxyphenyl)quinolin-6-ol], in experiment [1], the IC50 worked out at 13 nM and the α/β amounted to 15. In experiment [2], this compound showed an IC50 of 195 nM.

On to `N#Cc1cc(O)cc2c(Cl)cc(-c3ccc(O)c(F)c3)nc12` [Cpd 56, 4-Chloro-8-cyano-2-(3-fluoro-4-hydroxyphenyl)quinolin-6-ol], for which, in experiment [1], the IC50 amounted to 1.1 nM and the α/β is 105. Also, the IC50 in experiment [2] was determined as 116 nM.

`N#Cc1cc(O)cc2c(Br)cc(-c3ccc(O)c(F)c3)nc12` [Cpd 57, 4-Bromo-8-cyano-2-(3-fluoro-4-hydroxyphenyl)quinolin-6-ol]: in experiment [1], the IC50 is 1.4 nM and the α/β was 61. Also, the IC50 in experiment [2] is 86 nM.

As for `C#Cc1cc(-c2ccc(O)c(F)c2)nc2c(C#N)cc(O)cc12` [Cpd 58, 8-Cyano-4-ethynyl-2-(3-fluoro-4-hydroxyphenyl)quinolin-6-ol], in experiment [1], the IC50 was 1.3 nM and the α/β was 67. In addition, the IC50 in experiment [2] amounted to 87 nM.

`N#Cc1ccc(-c2cc(O)cc3c(Cl)cc(-c4ccc(O)c(F)c4)nc23)cc1` [Cpd 61, 4-Chloro-8-(4-cyanophenyl)-2-(3-fluoro-4-hydroxyphenyl)quinolin-6-ol]: in experiment [1], the IC50 stood at 13 nM and the α/β was determined as 40. In experiment [2], this compound had an IC50 of 522 nM.
